Source: patent US7351726B2, “Substituted oxadiazolidinediones” (Wyeth, priority 2003, dated 2008)

Assays:
human PAI-1 = human PAI-1 (Homo sapiens, UniProt P05121); test: Assay for determining IC50 of inhibition of PAI-1 (tPA-coated plate, antibody detection of active PAI-1); type: binding; conditions: active human PAI-1 bound to tPA-coated plate; pH 7.5; compound 1-50 μM
Experimental: This assay is based upon the non-SDS dissociable interaction between tPA and active PAI-1. Assay plates are initially coated with human tPA (10 μg/ml). Substituted oxadiazolidinedione of the present invention are dissolved in DMSO at 10 mM, then diluted with physiologic buffer (pH 7.5) to a final concentration of 1-50 μM. WAY compounds are incubated with human PAI-1 (50 ng/ml) for 15 minutes at room temperature. The tPA-coated plate is washed with a solution of 0.05% Tween 20 and 0.1% BSA, then the plate is blocked with a solution of 3% BSA. An aliquot of the substituted oxadiazolidinedione/PA-1 solution is then added to the tPA-coated plate, incubated at room temperature for 1 hour, and washed. Active PAI-1 bound to the plate is assessed by adding an aliquot of a 1:1000 dilution of the 33B8 monoclonal antibody against human PAI-1, and incubating the plate at room temperature for 1 hour (Molecular Innovations, Royal Oak, Mich.). […] The plate is incubated 45 minutes at room temperature, and color development is determined at OD405nm. The quantitation of active PAI-1 bound to tPA at varying concentrations of substituted oxadiazolidinedione is used to determine the IC50. Results are analyzed using a logarithmic best-fit equation. The assay sensitivity is 5 ng/ml of human PAI-1 as determined from a standard curve ranging from 0-100 ng/ml.

[1] = biological target: T1, recombinant human plasminogen activator inhibitor-1 (PAI-1) (Homo sapiens, UniProt P05121); test: Primary screen for PAI-1 inhibition (chromogenic tPA activity assay); type: biochemical; conditions: 100 μM compound; 140 nM PAI-1, 70 nM tPA; pH 6.6
T1 construct: purchased Molecular Innovations, Royal Oak, Mich
Experimental: Test compounds are dissolved in DMSO at a final concentration of 10 mM, then diluted 100× in physiologic buffer. The inhibitory assay is initiated by the addition of the substituted oxadiazolidinedione (1-100 μM final concentration, maximum DMSO concentration of 0.2%) in a pH 6.6 buffer containing 140 nM recombinant human plasminogen activator inhibitor-1 (PAI-1; Molecular Innovations, Royal Oak, Mich.). Following a 1 hour incubation at room temperature, 70 nM of recombinant human tissue plasminogen activator (tPA) is added, and the combination of the substituted oxadiazolidinedione, PAI-1 and tPA is incubated for an additional 30 minutes. Following the second incubation, Spectrozyme-tPA (American Diagnostica, Greenwich, CT), a chromogenic substrate for tPA, is added and absorbance read at 405 nm at 0 and 60 minutes. Relative PAI-1 inhibition is equal to the residual tPA activity in the presence of WAY and PAI-1. Control treatments include the complete inhibition of tPA by PAI-1 at the molar ratio employed (2:1), and the absence of any effect of the substituted oxadiazolidinedione on tPA alone.

T1 sequence (P05121 24-402): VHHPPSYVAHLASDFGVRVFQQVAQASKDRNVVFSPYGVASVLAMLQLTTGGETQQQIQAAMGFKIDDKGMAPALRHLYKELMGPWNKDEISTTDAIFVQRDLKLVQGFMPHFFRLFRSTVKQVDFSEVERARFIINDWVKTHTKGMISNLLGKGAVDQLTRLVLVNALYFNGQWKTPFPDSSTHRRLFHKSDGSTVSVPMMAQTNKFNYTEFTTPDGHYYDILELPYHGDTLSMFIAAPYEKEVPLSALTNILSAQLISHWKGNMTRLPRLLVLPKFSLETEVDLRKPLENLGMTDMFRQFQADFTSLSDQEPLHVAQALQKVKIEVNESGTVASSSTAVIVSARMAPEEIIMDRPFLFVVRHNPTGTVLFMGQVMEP
human PAI-1, sequence (P05121 24-402): as above

IC50 (human PAI-1) [µM]	melting point [°C]	inhibition at 100 µM [1] [%]	Compound
9.3	118 to 120	–	CC/C(=C/Cn1oc(=O)[nH]c1=O)c1ccc2c(Cc3ccccc3)c(CC)oc2c1 [Compound 1, Z-2-[-3-(3-Benzyl-2-ethyl-benzofuran-6-yl)-pent-2-enyl]-[1,2,4]oxadiazolidine-3,5-dione]
–	–	39	CC/C(=C\Cn1oc(=O)[nH]c1=O)c1ccc2c(Cc3ccccc3)c(CC)oc2c1 [Compound 2, E-2-[-3-(3-Benzyl-2-ethyl-benzofuran-6-yl)-pent-2-enyl]-[1,2,4]oxadiazolidine-3,5-dione]
